Test results reported in patent US11834453B2, “Substituted pyrimido[5,4-d]pyrimidines as HER2 inhibitors” (Array BioPharma Inc., priority 2020, dated 2023).

Columns and labels:
[1] = biological target: ErbB2 insYVMA (HER2-YVMA, SEQ ID NO: 2) (Homo sapiens, UniProt P04626, INS775YVMA/P1170A); test: biochemical; conditions: ErbB2 insYVMA enzyme assay; read-out: Assay 1 IC50
ErbB2 WT = ErbB2 WT (Homo sapiens (Human), UniProt P04626); test: ErbB enzyme assay (CisBio HTRF KinEASE-TK), Assay 2; type: biochemical
ErbB2 WT, sequence (P04626 23-1255): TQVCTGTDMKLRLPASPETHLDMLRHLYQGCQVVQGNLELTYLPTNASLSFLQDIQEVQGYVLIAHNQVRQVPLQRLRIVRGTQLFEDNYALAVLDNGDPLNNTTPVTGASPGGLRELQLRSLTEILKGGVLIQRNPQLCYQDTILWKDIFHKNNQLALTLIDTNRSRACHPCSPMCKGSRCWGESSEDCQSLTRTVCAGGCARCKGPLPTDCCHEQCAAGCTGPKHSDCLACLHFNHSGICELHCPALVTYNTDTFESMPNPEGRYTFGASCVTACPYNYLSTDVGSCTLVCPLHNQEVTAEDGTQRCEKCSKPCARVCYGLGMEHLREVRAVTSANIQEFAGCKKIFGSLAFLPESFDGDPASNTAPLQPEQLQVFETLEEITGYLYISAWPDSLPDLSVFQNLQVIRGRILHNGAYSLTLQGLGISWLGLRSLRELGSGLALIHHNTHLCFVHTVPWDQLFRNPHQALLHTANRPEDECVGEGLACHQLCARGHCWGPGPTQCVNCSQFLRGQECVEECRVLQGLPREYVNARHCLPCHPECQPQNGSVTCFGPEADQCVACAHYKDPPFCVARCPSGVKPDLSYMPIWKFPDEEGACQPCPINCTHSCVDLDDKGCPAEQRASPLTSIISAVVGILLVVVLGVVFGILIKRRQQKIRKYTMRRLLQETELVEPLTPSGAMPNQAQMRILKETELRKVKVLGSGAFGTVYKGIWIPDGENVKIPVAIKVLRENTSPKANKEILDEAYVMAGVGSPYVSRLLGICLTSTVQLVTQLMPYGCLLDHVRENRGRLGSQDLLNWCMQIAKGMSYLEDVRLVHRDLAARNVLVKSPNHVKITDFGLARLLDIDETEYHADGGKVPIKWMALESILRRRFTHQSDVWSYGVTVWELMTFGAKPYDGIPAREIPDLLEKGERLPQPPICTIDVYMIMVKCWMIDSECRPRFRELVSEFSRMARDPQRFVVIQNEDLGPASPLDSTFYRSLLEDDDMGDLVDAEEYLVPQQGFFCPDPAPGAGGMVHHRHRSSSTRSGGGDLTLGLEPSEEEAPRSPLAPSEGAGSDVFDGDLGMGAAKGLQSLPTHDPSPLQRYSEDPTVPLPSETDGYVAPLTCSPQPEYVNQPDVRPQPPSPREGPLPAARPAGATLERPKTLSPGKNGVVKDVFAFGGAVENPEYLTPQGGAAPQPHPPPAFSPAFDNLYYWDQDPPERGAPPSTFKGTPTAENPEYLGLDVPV
How it was run: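 Readout is HTRF KinEASE-TK, using Sa-XL665 and cryptate antibody for 1 h at 22 °C, as percent of control between DMSO-only (100) and pre-quenched (0) reactions. The kinase reaction runs 30 min at 22 °C with 1 mM ATP and 250 nM biotinylated TK substrate, in HEPES pH 7.4 with MgCl2 and 2% DMSO.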

EGFR = EGFR (Homo sapiens (Human), UniProt P00533); test: ErbB enzyme assay (CisBio HTRF KinEASE-TK), Assay 3; type: biochemical
How it was run: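 IC50 was taken where a 4-parameter logistic fit crossed 50 percent of control (DMSO 100, pre-quenched 0), read by ratiometric HTRF. Reactions ran 30 min at 22 °C with 1 mM ATP and 250 nM TK-substrate biotin in pH 7.4 HEPES buffer with MgCl2, Triton X-100 and 2% DMSO.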

[2] = biological target: ErbB2 with Exon 20 YVMA insertion (HER2-YVMA) (Homo sapiens (Human), UniProt P04626, INS775YVMA); test: Cellular phosphorylation assay, constitutive ErbB2 phosphorylation (Y1196) in engineered NIH 3T3 cells, Assay 4; type: cell-based
ErbB2 with Exon 20 YVMA insertion (HER2-YVMA), sequence (P04626 other isoform, or with tags, fused parts or gaps ins YVMA behind 775): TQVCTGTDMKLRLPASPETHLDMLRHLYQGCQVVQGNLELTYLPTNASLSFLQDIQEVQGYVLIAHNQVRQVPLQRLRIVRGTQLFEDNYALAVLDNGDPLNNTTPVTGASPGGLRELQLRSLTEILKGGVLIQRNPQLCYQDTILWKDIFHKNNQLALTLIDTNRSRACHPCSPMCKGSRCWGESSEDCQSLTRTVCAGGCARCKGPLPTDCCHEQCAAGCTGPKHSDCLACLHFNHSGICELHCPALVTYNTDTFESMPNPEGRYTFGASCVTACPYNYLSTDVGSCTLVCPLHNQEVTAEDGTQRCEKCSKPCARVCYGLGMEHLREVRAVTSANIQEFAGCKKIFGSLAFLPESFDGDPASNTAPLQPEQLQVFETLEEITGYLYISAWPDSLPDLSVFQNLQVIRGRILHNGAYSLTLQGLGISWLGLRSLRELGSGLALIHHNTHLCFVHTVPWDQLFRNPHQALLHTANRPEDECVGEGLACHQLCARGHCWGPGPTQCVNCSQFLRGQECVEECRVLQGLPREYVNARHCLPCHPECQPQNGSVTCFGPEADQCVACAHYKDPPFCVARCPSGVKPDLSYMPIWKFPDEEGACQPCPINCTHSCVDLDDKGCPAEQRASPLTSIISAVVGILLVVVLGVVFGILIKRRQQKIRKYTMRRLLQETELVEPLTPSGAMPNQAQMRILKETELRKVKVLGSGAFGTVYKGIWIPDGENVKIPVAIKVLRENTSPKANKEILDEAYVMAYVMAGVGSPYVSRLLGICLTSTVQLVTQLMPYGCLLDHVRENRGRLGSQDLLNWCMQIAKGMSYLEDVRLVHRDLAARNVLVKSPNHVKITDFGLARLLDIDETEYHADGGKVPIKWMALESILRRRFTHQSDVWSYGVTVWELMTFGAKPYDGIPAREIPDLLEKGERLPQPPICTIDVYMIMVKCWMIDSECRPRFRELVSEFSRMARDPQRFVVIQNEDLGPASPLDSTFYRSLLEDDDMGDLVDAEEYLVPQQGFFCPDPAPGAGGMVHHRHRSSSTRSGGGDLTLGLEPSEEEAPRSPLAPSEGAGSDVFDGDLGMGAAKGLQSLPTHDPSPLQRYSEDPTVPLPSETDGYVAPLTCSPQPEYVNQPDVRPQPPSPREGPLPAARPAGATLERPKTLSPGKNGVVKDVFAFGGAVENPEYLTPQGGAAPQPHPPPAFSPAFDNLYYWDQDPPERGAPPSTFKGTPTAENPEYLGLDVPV
How it was run: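 In-cell Western in NIH 3T3 cells carrying ErbB2 exon 20 YVMA insertion, with no ligand stimulation. One hour compound exposure at 37 °C before fixation and anti-pY1196 plus GAPDH staining with dual-wavelength fluorescence. IC50 derived after GAPDH normalization.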

EGFR wild type (EGFR WT) = EGFR wild type (EGFR WT) (Homo sapiens (Human), UniProt P00533); test: Cellular phosphorylation assay, EGF-stimulated EGFR phosphorylation in engineered NIH 3T3 cells, Phospho-EGFR DuoSet IC ELISA, Assay 5; type: cell-based
How it was run: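 Phospho-EGFR ELISA on lysates of engineered NIH 3T3 EGFR WT cells, IC50 derived from concentration curves. Cells plated at 20,000/well overnight, given compound dilutions 1 h at 37 °C, then rEGF 100 ng/ml for a further 10 min before lysis.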

MDR1 (P-gp) = MDR1 (P-gp) (Homo sapiens (Human), UniProt P08183); test: MDR1 transfected LLC-PK1 permeability/efflux, Assay 6; conditions: pig
MDR1 (P-gp), sequence (P08183 whole entry): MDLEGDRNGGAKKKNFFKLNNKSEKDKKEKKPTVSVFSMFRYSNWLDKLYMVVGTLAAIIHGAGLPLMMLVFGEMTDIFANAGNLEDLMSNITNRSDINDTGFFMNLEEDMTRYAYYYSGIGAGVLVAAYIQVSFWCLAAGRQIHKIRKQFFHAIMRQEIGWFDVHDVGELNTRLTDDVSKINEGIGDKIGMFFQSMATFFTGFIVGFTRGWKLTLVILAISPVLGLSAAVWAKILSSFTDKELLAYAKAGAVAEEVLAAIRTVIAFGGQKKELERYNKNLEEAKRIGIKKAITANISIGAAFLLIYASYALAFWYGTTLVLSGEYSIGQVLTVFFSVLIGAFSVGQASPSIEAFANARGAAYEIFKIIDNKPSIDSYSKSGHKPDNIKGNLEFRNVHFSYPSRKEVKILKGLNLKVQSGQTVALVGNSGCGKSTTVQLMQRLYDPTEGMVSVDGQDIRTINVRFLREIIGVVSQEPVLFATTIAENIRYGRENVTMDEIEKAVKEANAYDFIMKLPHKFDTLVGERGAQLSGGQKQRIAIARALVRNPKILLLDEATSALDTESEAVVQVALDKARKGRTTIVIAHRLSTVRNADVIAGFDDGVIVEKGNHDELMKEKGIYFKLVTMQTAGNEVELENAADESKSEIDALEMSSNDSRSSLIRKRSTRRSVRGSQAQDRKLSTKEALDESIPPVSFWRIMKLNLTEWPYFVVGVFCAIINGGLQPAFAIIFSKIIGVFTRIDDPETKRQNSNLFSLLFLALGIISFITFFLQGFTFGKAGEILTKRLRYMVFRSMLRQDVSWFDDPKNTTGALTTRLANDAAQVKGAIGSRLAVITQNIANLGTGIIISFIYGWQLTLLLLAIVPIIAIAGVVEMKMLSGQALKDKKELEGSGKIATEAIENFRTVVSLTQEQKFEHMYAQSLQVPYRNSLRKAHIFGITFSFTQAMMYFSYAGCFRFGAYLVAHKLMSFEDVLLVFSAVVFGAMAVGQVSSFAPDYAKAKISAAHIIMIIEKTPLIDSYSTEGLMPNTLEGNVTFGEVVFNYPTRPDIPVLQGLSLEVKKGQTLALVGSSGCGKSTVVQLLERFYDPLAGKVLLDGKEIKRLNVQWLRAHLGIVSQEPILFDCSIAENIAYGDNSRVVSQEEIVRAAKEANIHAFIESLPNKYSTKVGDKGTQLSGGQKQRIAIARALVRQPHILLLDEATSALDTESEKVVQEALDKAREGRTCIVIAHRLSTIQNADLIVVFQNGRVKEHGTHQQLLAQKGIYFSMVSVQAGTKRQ
Procedure: Both MDR1 transfected LLC-PK1 (Assay 6) and MDR1 transfected MDCKII canine Mdr1 knockout cells (Assay 7) were cultured and plated according to manufacturer's recommendations with the exception that the passage media for the MDR1 transfected LLC-PK1 cell line contained only 2% fetal bovine serum so as to extend passage time out to seven days.
Both positive and negative controls were used to assess functionality of P-gp or BCRP efflux in the assays. Stock solutions for assay controls and the test article were prepared in DMSO for final test concentration of 1 μM. Final organic concentration in the assay was 1%. All dosing solutions contained 10 μM lucifer yellow to monitor MDCKII cell monolayer integrity.
For the apical to basolateral determination (A to B), 75 μL of the test article in transport buffer were added to the apical side of the individual transwells and 250 μL of basolateral media, without compound or lucifer yellow, were added to each well. For the basolateral to apical determination (B to A), 250 μL of test article in transport buffer were added to each well and 75 μL transport buffer, without compound or lucifer yellow, were added to each transwell. All tests were performed in triplicate, and each compound was tested for both apical to basolateral and basolateral to apical transport. The plates were incubated for 2 hours on a Lab-Line Instruments Titer Orbital Shaker (VWR, West Chester, PA) at 50 rpm and 37° C. with 5% CO2. All culture plates were removed from the incubator, 50 μL of media were removed from the apical and basolateral portion of each well, and added to 150 μL of 1 μM labetalol in 2:1 acetonitrile (ACN): H2O, v/v.
The plates were read using a Molecular Devices (Sunnyvale, CA) Gemini Fluorometer to evaluate the lucifer yellow concentrations at excitation/emission wavelengths of 425/535 nm. These values were accepted when found to be below 2% for apical to basolateral and 5% basolateral to apical flux across the MDR1-transfected LLC-PK1 or BCRP-transfected MDCKII cell monolayers. The plates were sealed, and the contents of each well analyzed by LC MS/MS. The compound concentrations were determined from the ratio of the peak areas of the compound to the internal standard (labetalol) in comparison to the dosing solution.
A MDS Sciex API 4000 (Applied Biosystems, Foster City, CA) mass spectrometer was used for detection of the analytes in the ion spray positive mode. Analyte responses were measured by multiple reaction monitoring (“MRM”) of transitions unique to each compound (the protonated precursor ion and selected product ions for each test article and m/z 329 to m/z 162 for labetalol, the internal standard.
The total run time, including re-equilibration, for a single injection was 1.2 minutes. […] The total run time, including re-equilibration, for a single injection was 0.61 minutes.
An efflux ratio is calculated from the mean apical to basolateral (A-B) Papp data and basolateral to apical (B-A) Papp data: Efflux ratio=Papp(B−A)/Papp(A−B)

[3] = LLC-PK1, Assay 6 Pe Ratio, efflux ratio Papp(B-A)/Papp(A-B), MDR1 transfected LLC-PK1

ErbB2 insYVMA (HER2-YVMA, SEQ ID NO: 2), sequence (P04626 with tags, fused parts or gaps INS775YVMA/P1170A limits assumed): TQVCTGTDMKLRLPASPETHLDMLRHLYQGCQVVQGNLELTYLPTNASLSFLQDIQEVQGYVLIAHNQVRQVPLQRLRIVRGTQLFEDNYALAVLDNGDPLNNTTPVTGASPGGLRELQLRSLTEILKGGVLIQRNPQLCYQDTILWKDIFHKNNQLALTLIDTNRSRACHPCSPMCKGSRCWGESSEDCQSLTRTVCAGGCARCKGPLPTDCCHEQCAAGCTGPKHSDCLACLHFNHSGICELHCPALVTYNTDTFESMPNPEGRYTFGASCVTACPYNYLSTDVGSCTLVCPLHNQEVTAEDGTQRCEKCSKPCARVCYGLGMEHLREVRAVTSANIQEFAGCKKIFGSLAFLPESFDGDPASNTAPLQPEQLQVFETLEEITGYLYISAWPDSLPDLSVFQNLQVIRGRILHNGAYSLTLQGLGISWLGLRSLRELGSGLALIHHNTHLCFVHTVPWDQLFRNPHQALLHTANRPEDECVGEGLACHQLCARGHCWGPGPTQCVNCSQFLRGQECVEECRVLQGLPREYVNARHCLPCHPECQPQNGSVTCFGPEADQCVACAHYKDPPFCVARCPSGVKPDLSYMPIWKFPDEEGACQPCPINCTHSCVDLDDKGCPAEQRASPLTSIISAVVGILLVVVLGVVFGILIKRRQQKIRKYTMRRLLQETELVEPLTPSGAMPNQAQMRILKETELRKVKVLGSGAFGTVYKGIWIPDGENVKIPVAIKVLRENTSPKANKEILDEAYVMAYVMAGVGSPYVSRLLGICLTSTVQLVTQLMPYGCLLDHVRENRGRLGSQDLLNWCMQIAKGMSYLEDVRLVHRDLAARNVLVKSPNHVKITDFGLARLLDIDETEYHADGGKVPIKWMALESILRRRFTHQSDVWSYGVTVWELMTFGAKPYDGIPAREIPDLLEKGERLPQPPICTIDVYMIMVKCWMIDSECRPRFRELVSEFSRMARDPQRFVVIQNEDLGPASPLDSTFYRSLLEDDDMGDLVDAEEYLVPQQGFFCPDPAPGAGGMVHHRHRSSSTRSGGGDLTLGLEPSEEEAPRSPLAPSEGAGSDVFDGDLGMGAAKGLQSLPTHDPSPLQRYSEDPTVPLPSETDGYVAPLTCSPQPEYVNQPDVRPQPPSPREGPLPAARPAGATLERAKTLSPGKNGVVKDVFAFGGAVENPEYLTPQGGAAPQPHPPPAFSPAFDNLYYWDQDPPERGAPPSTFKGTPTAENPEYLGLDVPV

Row | Compound | IC50 [1] [nM] | IC50 (ErbB2 WT) [nM] | IC50 (EGFR) [nM] | IC50 [2] [nM] | IC50 (EGFR wild type (EGFR WT)) [nM] | efflux ratio at 2 h, 1 μM (MDR1 (P-gp); [3]) | efflux ratio at 2 h, 1 μM (MDR1 (P-gp); LLC-PK1)
1 | Cc1cc(Nc2ncnc3cnc(N4CCOC5CC54)nc23)ccc1Oc1ccc2c(c1)ncn2C (racemic) [Example 60, 6-(2-oxa-5-azabicyclo[4.1.0]heptan-5-yl)-N-(3-methyl-4-((1-methyl-1H-benzo[d]imidazol-5-yl)oxy)phenyl)pyrimido[5,4-d]pyrimidin-4-amine] | 19.4 | 27.6 | 8860 | 8.5 | ≥ 5000 | 2.6 | –
2 | Cc1cc(Nc2ncnc3cnc(N[C@H]4CCOC4)nc23)ccc1Oc1ccc2c(c1)ncn2C [Example 17, (S)—N8-(3-methyl-4-((1-methyl-1H-benzo[d]imidazol-5-yl)oxy)phenyl)-N2-(tetrahydrofuran-3-yl)pyrimido[5,4-d]pyrimidine-2,8-diamine] | 7 | 6 | 2350 | 9.2 | ≥ 5000 | 6.6 | –
3 | Cc1cc(Nc2ncnc3cnc(NC45CC(C4)C5)nc23)ccc1Oc1ccc2c(c1)ncn2C [Example 18, N2-(bicyclo[1.1.1]pentan-1-yl)-N8-(3-methyl-4-((1-methyl-1H-benzo[d]imidazol-5-yl)oxy)phenyl)pyrimido[5,4-d]pyrimidine-2,8-diamine] | 122 | 167 | ≥ 10000 | 47.8 | ≥ 5000 | 2.6 | –
4 | CC(=O)N1CCN(c2ncc3ncnc(Nc4ccc(Oc5ccc6c(c5)ncn6C)c(C)c4)c3n2)CC1 [Example 24, 1-(4-(8-((3-methyl-4-((1-methyl-1H-benzo[d]imidazol-5-yl)oxy)phenyl)amino)pyrimido[5,4-d]pyrimidin-2-yl)piperazin-1-yl)ethan-1-one] | 18.2 | 31.5 | ≥ 10000 | 7.1 | ≥ 5000 | 30 | –
5 | Cc1cc(Nc2ncnc3cnc(N4CCN(C)C4=O)nc23)ccc1Oc1ccc2c(c1)ncn2C [Example 28, 1-methyl-3-(8-((3-methyl-4-((1-methyl-1H-benzo[d]imidazol-5-yl)oxy)phenyl)amino)pyrimido[5,4-d]pyrimidin-2-yl)imidazolidin-2-one] | 68.7 | 163 | ≥ 10000 | 24.8 | ≥ 5000 | 13.3 | –
6 | Cc1cc(Nc2ncnc3cnc(NC4=NC(C)(C)CO4)nc23)ccc1Oc1ccc2c(c1)ncn2C [Example 32, N2-(4,4-dimethyl-4,5-dihydrooxazol-2-yl)-N8-(3-methyl-4-((1-methyl-1H-benzo[d]imidazol-5-yl)oxy)phenyl)pyrimido[5,4-d]pyrimidine-2,8-diamine] | 34.6 | 43.4 | ≥ 10000 | 13.4 | ≥ 5000 | 34.5 | –
7 | Cc1cc(Nc2ncnc3cnc(N4CCCC4=O)nc23)ccc1Oc1ccc2c(c1)ncn2C [Example 34, 1-(8-((3-methyl-4-((1-methyl-1H-benzo[d]imidazol-5-yl)oxy)phenyl)amino)pyrimido[5,4-d]pyrimidin-2-yl)pyrrolidin-2-one] | 124 | 307 | ≥ 10000 | 30.5 | ≥ 5000 | 6.3 | –
8 | CNc1ncc2ncnc(Nc3ccc(Oc4ccc5scnc5c4)c(C)c3)c2n1 [Example 50, N8-(4-(benzo[d]thiazol-5-yloxy)-3-methylphenyl)-N2-methylpyrimido[5,4-d]pyrimidine-2,8-diamine 2,2,2-trifluoroacetate] | 4.8 | 11.4 | 363 | 93.6 | ≥ 5000 | 1.2 | –
9 | Cc1cc(Nc2ncnc3cnc(N4C[C@H]5CCCN5C4=O)nc23)ccc1Oc1ccc2c(c1)ncn2C [Example 66, (R)-2-(8-((3-methyl-4-((1-methyl-1H-benzo[d]imidazol-5-yl)oxy)phenyl)amino)pyrimido[5,4-d]pyrimidin-2-yl)hexahydro-3H-pyrrolo[1,2-c]imidazol-3-one] | 53.9 | 180 | ≥ 10000 | 41.4 | ≥ 5000 | 11.6 | –
10 | Cc1cc(Nc2ncnc3cnc(N[C@@H]4CCNC[C@@H]4F)nc23)ccc1Oc1ccc2c(c1)ncn2C [Example 83, N2-((3S,4R)-3-fluoropiperidin-4-yl)-N8-(3-methyl-4-((1-methyl-1H-benzo[d]imidazol-5-yl)oxy)phenyl)pyrimido[5,4-d]pyrimidine-2,8-diamine] | 12.4 | 34.5 | 5650 | 20.3 | ≥ 5000 | 76 | –
11 | Cc1cc(Nc2ncnc3cnc(N[C@@H]4CCN(C)C[C@@H]4F)nc23)ccc1Oc1ccc2c(c1)ncn2C [Example 84, N2-((3S,4R)-3-fluoro-1-methylpiperidin-4-yl)-N8-(3-methyl-4-((1-methyl-1H-benzo[d]imidazol-5-yl)oxy)phenyl)pyrimido[5,4-d]pyrimidine-2,8-diamine] | 14 | 47.2 | 5380 | 25.5 | ≥ 5000 | 10.2 | –
12 | Cc1cc(Nc2ncnc3cnc(N4CC(C(C)(C)O)C4)nc23)ccc1Oc1ccc2c(c1)ncn2C [Example 118, 2-(1-(8-((3-methyl-4-((1-methyl-1H-benzo[d]imidazol-5-yl)oxy)phenyl)amino)pyrimido[5,4-d]pyrimidin-2-yl)azetidin-3-yl)propan-2-ol] | 54.2 | 88.7 | ≥ 10000 | 39.8 | ≥ 5000 | 7.4 | –
13 | Cc1cc(Nc2ncnc3cnc(N4CC[C@H](S(C)(=O)=O)C4)nc23)ccc1Oc1ccc2c(c1)ncn2C [Example 119, (S)—N-(3-methyl-4-((1-methyl-1H-benzo[d]imidazol-5-yl)oxy)phenyl)-6-(3-(methylsulfonyl)pyrrolidin-1-yl)pyrimido[5,4-d]pyrimidin-4-amine] | 26.8 | 30.7 | 9320 | 24.7 | ≥ 5000 | 29.6 | –
14 | Cc1cc(Nc2ncnc3cnc(N4CC[C@@H](S(C)(=O)=O)C4)nc23)ccc1Oc1ccc2c(c1)ncn2C [Example 125, (R)—N-(3-methyl-4-((1-methyl-1H-benzo[d]imidazol-5-yl)oxy)phenyl)-6-(3-(methylsulfonyl)pyrrolidin-1-yl)pyrimido[5,4-d]pyrimidin-4-amine] | 24.8 | 55.6 | ≥ 10000 | 32.4 | ≥ 5000 | 36.1 | –
15 | Cc1cc(Nc2ncnc3cnc(N4CC[C@H](C(C)(C)O)C4)nc23)ccc1Oc1ccc2c(c1)ncn2C [Example 126, (S)-2-(1-(8-((3-methyl-4-((1-methyl-1H-benzo[d]imidazol-5-yl)oxy)phenyl)amino)pyrimido[5,4-d]pyrimidin-2-yl)pyrrolidin-3-yl)propan-2-ol] | 15.5 | 18.3 | ≥ 10000 | 14.3 | ≥ 5000 | 3.8 | –
16 | Cc1cc(Nc2ncnc3cnc(N(C)CC4(O)CC4)nc23)ccc1Oc1ccc2c(c1)ncn2C [Example 166, 1-((methyl(8-((3-methyl-4-((1-methyl-1H-benzo[d]imidazol-5-yl)oxy)phenyl)amino)pyrimido[5,4-d]pyrimidin-2-yl)amino)methyl)cyclopropan-1-ol] | 16.1 | 39.7 | ≥ 10000 | 3 | ≥ 5000 | 4.6 | –
17 | Cc1cc(Nc2ncnc3cnc(N4CCOC(C(F)F)C4)nc23)ccc1Oc1ccc2c(c1)ncn2C (stereo not drawn) [Example 181, 6-(2-(difluoromethyl)morpholino)-N-(3-methyl-4-((1-methyl-1H-benzo[d]imidazol-5-yl)oxy)phenyl)pyrimido[5,4-d]pyrimidin-4-amine] | 81.5 | 171 | ≥ 10000 | 53.4 | ≥ 5000 | 0.3 | –
18 | Cc1cc(Nc2ncnc3cnc(N4CC5(CC5)CO4)nc23)ccc1Oc1ccc2c(c1)ncn2C [Example 187, N-(3-methyl-4-((1-methyl-1H-benzo[d]imidazol-5-yl)oxy)phenyl)-6-(5-oxa-6-azaspiro[2.4]heptan-6-yl)pyrimido[5,4-d]pyrimidin-4-amine] | 38.4 | 109 | ≥ 10000 | 14.3 | ≥ 5000 | – | 2.7
